Laboratory results taken from ChEMBL document CHEMBL1201862, “PubChem BioAssay data set” (2004).
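All cell lines were grown in 96-well plates and treated with compound for 48 hours. GI50 = concentration required for 50% inhibition of growth.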 Active and inactive are the calls of the source. No stated cut-off is given here; in the data, active = GI50 up to about 1.1 µM and inactive = higher.

Experiments:
Assay in all cases: NCI tumour cell line growth inhibition, 48 h
[1] = tested on: TK-10
[2] = tested on: CCRF-CEM
[3] = tested on: OVCAR-8
[4] = tested on: 786-0
[5] = tested on: LXFL 529
[6] = tested on: SW-620
[7] = tested on: NCI-H226
[8] = tested on: ACHN
[9] = tested on: HCT-15
[10] = tested on: HOP-92
[11] = tested on: SK-MEL-28
[12] = tested on: NCI-H460
[13] = tested on: COLO 205
[14] = tested on: A498
[15] = tested on: NCI/ADR-RES
[16] = tested on: MDA-MB-435
[17] = tested on: DU-145
[18] = tested on: MDA-MB-231
[19] = tested on: T47D
[20] = tested on: BT-549

Structure (SMILES)	GI50 [1]	GI50 [2]	GI50 [3]	GI50 [4]	GI50 [5]	GI50 [6]	GI50 [7]	GI50 [8]	GI50 [9] [µM]	GI50 [10]	GI50 [11]	GI50 [12]	GI50 [13]	GI50 [14]	GI50 [15]	GI50 [16]	GI50 [17]	GI50 [18]	GI50 [19]	GI50 [20]
CCC(/C(=N/NC(=O)C[N+](C)(C)C)c1ccccc1)C1OC(=O)c2ccccc21 (stereo not drawn)	> 100 µM (inactive)	> 100 µM (inactive)	> 100 µM (inactive)	> 100 µM (inactive)	> 100 µM (inactive)	> 100 µM (inactive)	> 100 µM (inactive)	> 100 µM (inactive)	> 100	> 100 µM (inactive)	> 100 µM (inactive)	> 100 µM (inactive)	> 100 µM (inactive)	–	–	–	–	–	–	–
FC(F)(F)c1nc(-c2ccccc2Cl)[nH]c1C(F)(F)F	1.13 µM (inactive)	0.504 µM (active)	1.11 µM (active)	1.08 µM (active)	0.935 µM (active)	1.15 µM (inactive)	0.61 µM (active)	0.841 µM (active)	0.875	0.408 µM (active)	1.21 µM (inactive)	0.859 µM (active)	0.542 µM (active)	–	–	–	–	–	–	–
Cc1c(C(=O)/C=C/c2ccc(Cl)cc2)[n+]([O-])c2ccccc2[n+]1[O-]	18.2 µM (inactive)	5.57 µM (inactive)	11.2 µM (inactive)	12.6 µM (inactive)	9.08 µM (inactive)	8.69 µM (inactive)	16.4 µM (inactive)	14.7 µM (inactive)	9.23	15 µM (inactive)	17 µM (inactive)	11.3 µM (inactive)	14.1 µM (inactive)	14.2 µM (inactive)	–	–	–	–	–	–
O=c1[nH]cc(COCCCO)c(=O)[nH]1	> 100 µM (inactive)	> 100 µM (inactive)	> 100 µM (inactive)	> 100 µM (inactive)	> 100 µM (inactive)	> 100 µM (inactive)	> 100 µM (inactive)	> 100 µM (inactive)	> 100	> 100 µM (inactive)	> 100 µM (inactive)	> 100 µM (inactive)	> 100 µM (inactive)	> 100 µM (inactive)	–	–	–	–	–	–
O=C(Nc1nnc(S)[nH]1)C(=O)C(c1cnc2ccc([N+](=O)[O-])cc2n1)[N+](=O)[O-] (stereo not drawn)	> 100 µM (inactive)	> 100 µM (inactive)	> 100 µM (inactive)	> 100 µM (inactive)	> 100 µM (inactive)	> 100 µM (inactive)	> 100 µM (inactive)	94.8 µM (inactive)	72.9	> 100 µM (inactive)	> 100 µM (inactive)	> 100 µM (inactive)	> 100 µM (inactive)	> 100 µM (inactive)	–	–	–	–	–	–
COC(=O)c1nc(N)nc(O)c1-c1ccc(Cl)cc1	> 100 µM (inactive)	> 100 µM (inactive)	> 100 µM (inactive)	> 100 µM (inactive)	> 100 µM (inactive)	> 100 µM (inactive)	> 100 µM (inactive)	> 100 µM (inactive)	> 100	> 100 µM (inactive)	> 100 µM (inactive)	> 100 µM (inactive)	> 100 µM (inactive)	> 100 µM (inactive)	–	–	–	–	–	–
COc1ccc(OCC(=O)O)c2c1CCC(C(C)C)C2=O (stereo not drawn)	> 100 µM (inactive)	> 100 µM (inactive)	> 100 µM (inactive)	> 100 µM (inactive)	> 100 µM (inactive)	> 100 µM (inactive)	–	> 100 µM (inactive)	–	80.2 µM (inactive)	> 100 µM (inactive)	> 100 µM (inactive)	> 100 µM (inactive)	> 100 µM (inactive)	–	–	–	–	–	–
O=C(O)CCCCCOc1cccnc1/C=N/NC1=NCCN1	> 100 µM (inactive)	> 100 µM (inactive)	> 100 µM (inactive)	> 100 µM (inactive)	> 100 µM (inactive)	> 100 µM (inactive)	> 100 µM (inactive)	> 100 µM (inactive)	> 100	> 100 µM (inactive)	> 100 µM (inactive)	> 100 µM (inactive)	> 100 µM (inactive)	59.6 µM (inactive)	–	–	–	–	–	–
CC1(C)Cc2nnsc2C2=C1C(=O)CCS2	> 100 µM (inactive)	> 100 µM (inactive)	> 100 µM (inactive)	> 100 µM (inactive)	> 100 µM (inactive)	> 100 µM (inactive)	–	> 100 µM (inactive)	> 100	32.7 µM (inactive)	> 100 µM (inactive)	> 100 µM (inactive)	> 100 µM (inactive)	–	–	–	–	–	–	–
O=C(CSc1nnc(-c2ccc(/N=C\c3ccc(Cl)cc3)cc2)o1)Nc1ccccc1[N+](=O)[O-]	> 100 µM (inactive)	> 100 µM (inactive)	> 100 µM (inactive)	> 100 µM (inactive)	> 100 µM (inactive)	> 100 µM (inactive)	> 100 µM (inactive)	> 100 µM (inactive)	> 100	–	> 100 µM (inactive)	> 100 µM (inactive)	> 100 µM (inactive)	–	–	–	–	–	–	–
CC1CC2C(=O)N(c3ccccc3)C(=O)C2c2c1c1ccccc1n2Cc1ccccc1 (stereo not drawn)	–	> 100 µM (inactive)	> 100 µM (inactive)	> 100 µM (inactive)	> 100 µM (inactive)	> 100 µM (inactive)	33.3 µM (inactive)	39.1 µM (inactive)	35.1	9.84 µM (inactive)	–	> 100 µM (inactive)	49.8 µM (inactive)	–	–	–	–	–	–	–
CCOC(=O)CC[C@H](NC(=O)c1nc[nH]c1[N+](=O)[O-])C(=O)OCC	> 100 µM (inactive)	> 100 µM (inactive)	> 100 µM (inactive)	> 100 µM (inactive)	> 100 µM (inactive)	–	> 100 µM (inactive)	> 100 µM (inactive)	> 100	> 100 µM (inactive)	> 100 µM (inactive)	> 100 µM (inactive)	> 100 µM (inactive)	> 100 µM (inactive)	–	–	–	–	–	–
CN(C)/C=C/c1c2c(nc3ccccc13)C(=O)c1ccccc1C2=O	2.13 µM (inactive)	0.78 µM (active)	1.63 µM (inactive)	1.92 µM (inactive)	–	1.62 µM (inactive)	1.15 µM (inactive)	0.598 µM (active)	0.766	1.95 µM (inactive)	0.222 µM (active)	0.262 µM (active)	1.79 µM (inactive)	3.91 µM (inactive)	1.71 µM (inactive)	0.357 µM (active)	1.38 µM (inactive)	1.55 µM (inactive)	1.41 µM (inactive)	1.77 µM (inactive)
Cc1nn2c3c(nnc2c1C#N)C(=O)NN=C(N)S3	> 100 µM (inactive)	> 100 µM (inactive)	> 100 µM (inactive)	> 100 µM (inactive)	> 100 µM (inactive)	> 100 µM (inactive)	–	–	–	> 100 µM (inactive)	> 100 µM (inactive)	–	> 100 µM (inactive)	–	–	–	–	–	–	–
O=C1c2ccccc2C(=O)C1C(c1ccc([N+](=O)[O-])cc1)C1C(=O)c2ccccc2C1=O	> 100 µM (inactive)	32.4 µM (inactive)	25.5 µM (inactive)	> 100 µM (inactive)	30.8 µM (inactive)	17.9 µM (inactive)	59.7 µM (inactive)	> 100 µM (inactive)	63.1	36.2 µM (inactive)	29 µM (inactive)	> 100 µM (inactive)	> 100 µM (inactive)	–	–	–	–	–	–	–
O=[N+]([O-])c1ccc(N2C[N+](c3ccccc3)=NC(c3ccccc3)=N2)cc1	40.7 µM (inactive)	45.1 µM (inactive)	43.9 µM (inactive)	59.7 µM (inactive)	30.2 µM (inactive)	68.4 µM (inactive)	> 100 µM (inactive)	19.3 µM (inactive)	28.6	35.7 µM (inactive)	> 100 µM (inactive)	39.4 µM (inactive)	50.5 µM (inactive)	–	–	–	–	–	–	–
C[C@@]12C[C@@H](c3ccccc3O1)N1CCCSC1=N2	> 100 µM (inactive)	> 100 µM (inactive)	> 100 µM (inactive)	> 100 µM (inactive)	–	> 100 µM (inactive)	> 100 µM (inactive)	> 100 µM (inactive)	> 100	> 100 µM (inactive)	> 100 µM (inactive)	> 100 µM (inactive)	> 100 µM (inactive)	> 100 µM (inactive)	> 100 µM (inactive)	> 100 µM (inactive)	> 100 µM (inactive)	> 100 µM (inactive)	> 100 µM (inactive)	> 100 µM (inactive)
C1=C(c2ccccc2)CN(c2ccccc2)OC1	> 100 µM (inactive)	> 100 µM (inactive)	–	> 100 µM (inactive)	64 µM (inactive)	> 100 µM (inactive)	> 100 µM (inactive)	63.2 µM (inactive)	77.4	–	79.8 µM (inactive)	> 100 µM (inactive)	> 100 µM (inactive)	–	–	–	–	–	–	–
CC1(C)O[C@@H]2[C@@H]3OC(=O)C[C@@H]3[C@@H](COCc3ccccc3)[C@@H]2O1	> 100 µM (inactive)	> 100 µM (inactive)	> 100 µM (inactive)	> 100 µM (inactive)	–	> 100 µM (inactive)	> 100 µM (inactive)	> 100 µM (inactive)	> 100	> 100 µM (inactive)	> 100 µM (inactive)	> 100 µM (inactive)	> 100 µM (inactive)	> 100 µM (inactive)	> 100 µM (inactive)	> 100 µM (inactive)	> 100 µM (inactive)	> 100 µM (inactive)	> 100 µM (inactive)	> 100 µM (inactive)
OC(NN=C1CCCC1)(C(F)(F)Cl)C(F)(F)Cl	> 10 µM (inactive)	> 10 µM (inactive)	> 10 µM (inactive)	> 10 µM (inactive)	–	> 10 µM (inactive)	> 10 µM (inactive)	> 10 µM (inactive)	> 10	> 10 µM (inactive)	> 10 µM (inactive)	> 10 µM (inactive)	> 10 µM (inactive)	> 10 µM (inactive)	> 10 µM (inactive)	> 10 µM (inactive)	> 10 µM (inactive)	> 10 µM (inactive)	> 10 µM (inactive)	> 10 µM (inactive)
